The results in this text go back to patent US9540338B2, “Substituted cinnamic acid amides for treating pain” (NIPPON ZOKI PHARMACEUTICAL CO., LTD., priority 2012, dated 2017).

Structures can show the parent of a compound that is named as a salt. Marks after values point to notes of the source that are not given here.

For data set [1], the system named is Chung model rat. In words: Analgesic efficacy test (2): Chung model rat, neuropathic pain model (allodynia, von Frey filament). It is filed as in vivo, rats. The settings on record: mean ± standard error. The protocol: An analgesic efficacy test was conducted using a Chung model rat, a neuropathic pain model. Nine-week old Wistar male rats were previously bred as an experimental animal, and a model rat was then prepared in accordance with the method of Kim and Chung (Pain, 50, 355-363, 1992). Specifically, left L5 spinal nerves of rats were exposed under anesthetization with pentobarbital (40 mg/kg, intraperitoneal administration), and firmly ligated with 5-0 silk yarn at L5 dorsal root ganglion peripheral side. The animals were placed in a transparent acrylic cage of which bottom was wire netted The measurement of allodynia was carried out using von Frey filament (manufactured by North Coast Medical Inc.) and a 50% reaction threshold was calculated according to an up-down method, in accordance with a method of Chaplan et al. (J. Neurosci. Method, 53, 55-63, 1994). The 50% reaction thresholds were measured twice before injury of the spinal nerve, and those animals of which thresholds were outside the standard were removed from the operation of spinal nerve injury. On or after 14 days from the spinal nerve injury, a 50% reaction threshold was measured, and those showing thresholds of 1 g or more and less than 4 g were used as experimental animal. The group was constituted by 7 or 8 rats per group so that an average of a 50% reaction threshold for each group would be nearly even.
A solution or suspension prepared by dissolving or suspending a compound of the present invention in a 0.5% (w/v) aqueous CMC-Na solution was orally administered as a test substance in a single dose. Also, a 0.5% (w/v) aqueous CMC-Na solution was administered in the same manner to the control group for nerve injury. The measurements of allodynia were carried out with the passage of time after administration, and a 50% reaction threshold (mean±standard error) of each group at action peak was calculated. In the test for significance difference, Bartlett's test was carried out in the comparison between multiple groups of the group administered with test substance with the control group for nerve injury. In the case of homoscedasticity, Dunnett's multiple comparison test of parametrics, and in the case of heteroscedasticity, Dunnett's multiple comparison test of non-parametrics were used. In all cases, significance difference was considered to be found at P<0.05 (indicated as “*” in the tables).

Data set [2] has as its system ddY-type mice. In words: Analgesic efficacy test (1): acetic acid writhing test. It is filed as in vivo. As to conditions: Mus musculus, writhing number, mean ± standard error, 8 mice per group, read-out: Suppressive Rate; for inhibition in vivo at 10 mg/kg: oral single dose 10 mg/kg; for inhibition in vivo at 100 mg/kg: oral single dose 100 mg/kg. The source says:
A compound of the present invention was orally administered to mice, to carry out an analgesic efficacy test according to acetic acid writhing test. As an experimental animal, 4-week old male ddY-type mice were previously bred, and thereafter 8 mice per one group were used in the experiment. A solution or suspension prepared by dissolving or suspending a compound of the present invention in a 0.5% (w/v) aqueous CMC-Na solution was orally administered as a test substance in a single dose. While, to a control group, a 0.5% (w/v) aqueous CMC-Na solution was administered in the same manner After 25 minutes from administration, the mice were intraperitoneally administered with a 0.7% (v/v) acetic acid/physiological saline at the dose of 10 mL/kg. From 5 minutes thereafter, writhing number in a 10-minute period was counted, and a suppressive rate for each individual (mean±standard error) was calculated by the following formula: […]
In the test for significance difference, Bartlett's test was carried out in the comparison between multiple groups of the group administered with test substance with the control group. In the case of homoscedasticity, Dunnett's multiple comparison test of parametrics, and in the case of heteroscedasticity, Dunnett's multiple comparison test of non-parametrics were used. In addition, in the test of dose dependency, Jonckheere-Terpstra's test was used. In all cases, significance difference was considered to be found at P<0.05 (indicated as “*” in the table).

The mark [3] stands for this setting: oral 1 mg/kg, measurement point 90 minute (action peak).
Where [4] appears, read: oral 10 mg/kg, measurement point 90 minute (action peak).
Where [5] appears, read: oral 1 mg/kg, measurement point 60 minute (action peak).
Setting [6] is: oral 10 mg/kg, measurement point 60 minute (action peak).

Molecule `O=C(/C=C/c1ccccc1F)NCCN1CCN(C2CCCCC2)CC1` [Compound 6, (E)-N-[2-(4-Cyclohexylpiperazin-1-yl)ethyl]-3-(2-fluorophenyl)-2-propenamide] gave a melting point of 113 to 114 °C. For the same molecule, the “50% Reaction Threshold, Group Administered with Test Substance, After Administration” value (from here on “50% Reaction Threshold”) in data set [1] (setting [3]) is recorded as 10.87 ± 1.24* g. Also, the “50% Reaction Threshold” value in data set [1] (setting [4]) is 14.06 ± 0.61* g. For the same molecule, in data set [2], the inhibition in vivo at 10 mg/kg is 29.6 ± 12.8% and the inhibition in vivo at 100 mg/kg is 70.4 ± 6.1%.
`O=C(/C=C/c1ccccc1F)NCCN1CCOCC1` [Compound 5, (E)-3-(2-Fluorophenyl)-N-(2-morpholinoethyl)-2-propenamide]: the melting point is 112 to 113 °C. Also, the “50% Reaction Threshold” value in data set [1] (setting [3]) was found to be 4.91 ± 0.73 g. Moreover, the “50% Reaction Threshold” value in data set [1] (setting [4]) is recorded as 8.68 ± 1.91* g. Further, in data set [2], the inhibition in vivo at 10 mg/kg is 34.8 ± 10.3% and the inhibition in vivo at 100 mg/kg is 95.7 ± 3.1%.
The molecule `O=C(/C=C/c1ccccc1F)NCCCN1CCN(C2CCCCC2)CC1` [Compound 7, (E)-N-[3-(4-Cyclohexylpiperazin-1-yl)propyl]-3-(2-fluorophenyl)-2-propenamide] displayed a melting point of 84 to 85 °C. Besides, in data set [1] (setting [3]), the “50% Reaction Threshold” value came out at 9.05 ± 1.80 g. Further, the “50% Reaction Threshold” value in data set [1] (setting [4]) is 12.70 ± 1.16* g. Also, in data set [2], the inhibition in vivo at 10 mg/kg stood at 41.5 ± 17.2% and the inhibition in vivo at 100 mg/kg was determined as 68.4 ± 8%.
The molecule `Cl.NCCCCNC(=O)/C=C/c1ccccc1F` [Compound 14, (E)-N-(4-Aminobutyl)-3-(2-fluorophenyl)-2-propenamide hydrochloride] displayed a melting point of 177 to 178 °C. For the same molecule, in data set [1] (setting [5]), the “50% Reaction Threshold” value is 12.38 ± 1.15* g. The “50% Reaction Threshold” value in data set [1] (setting [6]) is recorded as 13.61 ± 0.96* g. For the same molecule, in data set [2], the inhibition in vivo at 10 mg/kg was 46.3 ± 11.1% and the inhibition in vivo at 100 mg/kg was determined as 76.8 ± 4.1%.
For `O=C(/C=C/c1ccccc1F)NCCc1c[nH]cn1` [Compound 18, (E)-3-(2-Fluorophenyl)-N-[2-(1H-imidazol-4-yl)ethyl]-2-propenamide], the melting point fell in the range of 152 to 153 °C. In data set [1] (setting [3]), the “50% Reaction Threshold” value is 10.92 ± 1.33* g. In data set [1] (setting [4]), the “50% Reaction Threshold” value is given as 11.44 ± 1.95* g. Besides, in data set [2], the inhibition in vivo at 10 mg/kg is 54.3 ± 13.2% and the inhibition in vivo at 100 mg/kg worked out at 62.3 ± 14.6%.
`Cl.O=C(/C=C/c1ccccc1F)NCCCN1CCOCC1` [Compound 11, (E)-3-(2-Fluorophenyl)-N-(3-morpholinopropyl)-2-propenamide hydrochloride] displayed a melting point of 153 to 154 °C. Besides, the “50% Reaction Threshold” value in data set [1] (setting [5]) is recorded as 11.69 ± 1.80* g. In addition, the “50% Reaction Threshold” value in data set [1] (setting [6]) is on record as 14.27 ± 0.73* g. Also, in data set [2], the inhibition in vivo at 10 mg/kg stood at 23.2 ± 12.8% and the inhibition in vivo at 100 mg/kg was determined as 68.9 ± 4.5%.
`CN1CCN(CCCNC(=O)/C=C/c2ccccc2F)CC1` [Compound 15, (E)-3-(2-Fluorophenyl)-N-[3-(4-methylpiperazin-1-yl)propyl]-2-propenamide dihydrochloride]: the “50% Reaction Threshold” value in data set [1] (setting [3]) is given as 7.45 ± 1.95* g. Moreover, the “50% Reaction Threshold” value in data set [1] (setting [4]) is 7.43 ± 1.63* g. In addition, in data set [2], the inhibition in vivo at 10 mg/kg is 24.3 ± 12.7% and the inhibition in vivo at 100 mg/kg turned out to be 44.1 ± 6.6%.
`Cl.O=C(/C=C/c1ccccc1F)NCCn1ccnc1` [Compound 21, (E)-3-(2-Fluorophenyl)-N-[2-(imidazol-1-yl)ethyl]-2-propenamide hydrochloride]: the “50% Reaction Threshold” value in data set [1] (oral 0.1 mg/kg, measurement point 90 minute (action peak)) is 6.04 ± 0.89 g; in data set [1] (oral 0.3 mg/kg, measurement point 90 minute (action peak)), 8.80 ± 1.42* g; in data set [1] (setting [3]), 11.78 ± 1.20* g. Moreover, in data set [2], the inhibition in vivo at 10 mg/kg came out at 44.5 ± 11.7%. For the same molecule, in data set [2], the inhibition in vivo at 100 mg/kg stood at 49.7 ± 4.7%.
Molecule `O=C(/C=C/c1ccccc1F)NCc1cccc(N2CC[S+]([O-])CC2)c1` [Compound 70, (E)-3-(2-Fluorophenyl)-N-{[3-(oxo-1,4-thiazinan-4-yl)phenyl]methyl}-2-propenamide] registered a melting point of 156 to 157 °C. In addition, in data set [1] (setting [5]), the “50% Reaction Threshold” value is listed as 4.09 ± 0.34* g. In addition, in data set [1] (setting [6]), the “50% Reaction Threshold” value is reported as 3.41 ± 0.31* g.
In the same order, the values of `O=C(/C=C/c1ccc(F)cc1)NCCCN1CC[S+]([O-])CC1` [Compound 67, (E)-3-(4-Fluorophenyl)-N-[3-(1-oxo-1,4-thiazinan-4-yl)propyl]-2-propenamide] are 130 to 131 °C, 10.63 ± 1.23* g and 10.71 ± 2.13* g.
Molecule `O=C(/C=C/c1ccc(F)cc1)NCCCN1CCOCC1` [Compound 26, (E)-3-(4-Fluorophenyl)-N-(3-morpholinopropyl)-2-propenamide] gave a melting point of 88 to 89 °C. Besides, the “50% Reaction Threshold” value in data set [1] (setting [5]) is given as 10.25 ± 1.07* g. The “50% Reaction Threshold” value in data set [1] (setting [6]) was 14.33 ± 0.67* g.
In turn, `O=C(/C=C/c1ccccc1F)NCCn1cccn1` [Compound 38, (E)-3-(2-Fluorophenyl)-N-[2-(pyrazol-1-yl)ethyl]-2-propenamide] had a melting point of 124 to 126 °C. The “50% Reaction Threshold” value in data set [1] (setting [3]) is 2.74 ± 0.23 g. In data set [1] (setting [4]), the “50% Reaction Threshold” value is recorded as 4.06 ± 0.52* g.
In the case of `O=C(/C=C/c1ccccc1F)NCCN1CCNCC1` [Compound 16, (E)-3-(2-Fluorophenyl)-N-[2-(piperazin-1-yl)ethyl]-2-propenamide dihydrochloride], the “50% Reaction Threshold” value in data set [1] (setting [3]) is given as 5.48 ± 0.82 g; in data set [1] (setting [4]) it was 7.48 ± 1.30 g. Also, the inhibition in vivo at 10 mg/kg in data set [2] was 42.6 ± 9.1%. In data set [2], the inhibition in vivo at 100 mg/kg came to 65.5 ± 8.9%.
`O=C(/C=C/c1ccccc1F)Nc1cccc(-c2ccno2)c1` [Compound 54, (E)-3-(2-Fluorophenyl)-N-[3-(isoxazol-5-yl)phenyl]-2-propenamide] returned a melting point of 185 to 187 °C. The “50% Reaction Threshold” value in data set [1] (oral 1 mg/kg, measurement point 30 minute (action peak)) is on record as 5.18 ± 0.81 g. Moreover, the “50% Reaction Threshold” value in data set [1] (oral 10 mg/kg, measurement point 30 minute (action peak)) is listed as 11.20 ± 1.19* g.
In turn, `Cl.N=C(N)NCCCCNC(=O)/C=C/c1ccccc1F` [Compound 65, (E)-3-(2-Fluorophenyl)-N-(4-guanidinobutyl)-2-propenamide hydrochloride] had a melting point of 154 to 156 °C. In addition, the “50% Reaction Threshold” value in data set [1] (setting [5]) is reported as 5.01 ± 0.52* g. Besides, the “50% Reaction Threshold” value in data set [1] (setting [6]) is on record as 5.24 ± 0.47* g.
Turning to `O=C(/C=C/c1ccccc1F)NCCc1c[nH]c2ccccc12` [Compound 1, (E)-3-(2-Fluorophenyl)-N-[2-(1H-indol-3-yl)ethyl]-2-propenamide], the “50% Reaction Threshold” value in data set [1] (setting [3]) is 6.71 ± 1.33 g. The “50% Reaction Threshold” value in data set [1] (setting [4]) is 14.06 ± 0.61* g. Moreover, in data set [2], the inhibition in vivo at 10 mg/kg was 46.9 ± 7.6% and the inhibition in vivo at 100 mg/kg was 62.7 ± 6%.

Broadly, the melting point is the temperature of the solid-liquid transition.
